Assay [1] concerns S. mansoni adult worms. The assay is described as follows: Adult worm screens (WormassayGP2 motility, egg count). The assay is classed as cell-based, Schistosoma mansoni. The conditions noted are these: 72 h. On the procedure: For compound screening, adult worms (three worm pairs/well for compound 7 and the hit compounds of set two; one worm pair/well for the hit compounds of set three) were transferred into wells of a 48-well tissue culture plate containing 1 ml of adult worm media. Adult worms were treated with compounds previously identified as hits at 10 µM on 72 h cultured schistosomula. Worms were dosed with an appropriate volume of 10 mM stock solution of each compound (in DMSO) to have a concentration range of 50 – 6.25 µM (up to 0.5% DMSO, primary screen of compound 7). Secondary screens were performed on the structural analogues of compound 7 (only the schistosomula hits at 10 µM) at a single concentration (12.5 µM) and compared to the same concentration of the parental compound (included in the screen as reference). DMSO (0.5%) and praziquantel (10 µM in 0.5% DMSO) were also included as negative and positive control treatments (both primary and secondary screens). Treated adult worms were incubated for 72 h in a humidified environment at 5% CO 2 at 37°C. Parasite motility after drug treatment was assessed by a digital image processing-based system (WormassayGP2, see Software availability) modified after Wormassay, [56], [57]. Egg production was assessed according to the methodology described by Edwards et al..

Assay [2] deals with S. mansoni miracidia. The assay is described as follows: Miracidia to sporocyst transformation screens. The conditions noted are these: 48 h. The assay is classed as cell-based, Schistosoma mansoni. On the procedure:
Following hatching of S. mansoni eggs, miracidia were incubated on ice for 15 min and then centrifuged at 700 x g for 5 min at 4°C. The miracidia pellet was then re-suspended in 5 ml of Chernin's balanced salt solution (CBSS), subjected to pelleting and two subsequent washes (all at 700 x g for 5 min at 4°C). Afterwards, the supernatant was carefully removed with a serological pipette and the miracidia-enriched pellet was resuspended with CBSS supplemented with 1 mg/ml each of glucose and trehalose and 500 µl of Penicillin-Streptomycin (containing 10,000 units penicillin and 10 mg streptomycin/ml, P4333, Sigma-Aldrich). In preparation for the screens, CBSS (250 µl) was aliquoted to each well of a 24-well plate followed by addition of each compound in DMSO (1 mM concentration in 1% DMSO) or DMSO alone (1%, negative control). Next, approximately 20-25 miracidia (in 250 µl of CBSS) were aliquoted to each well. […] Both preliminary and secondary screens were performed in duplicate on two separate occasions (two independent biological replicates). Miracidia were incubated for 48 h at 26°C before being evaluated using an Olympus inverted light microscope for morphological and behavioural changes differing from the control wells. Dead, partially transformed and fully transformed miracidia were enumerated in the DMSO control and the assay plates as previously described, [23], [59]. […] Absence of ciliated plates attached to the surface of the parasite and formation of sporocyst tegument defined the so-called “fully transformed” parasites.

Assay [3] has as its system S. mansoni adult worms. The experiment in a line: Adult worm screens (WormassayGP2 motility, egg count). The assay is classed as cell-based. The conditions noted are these: Schistosoma mansoni, two dose response titrations (100 – 3.13 µM).

In general, inhibition refers to the drop in the measured response relative to a control, in per cent. Usually EC50 stands for the concentration that produces a half-maximal response. A high value points to a need for much substance.

For the compound `c1ccc(Nc2nc(N3CCCC3)nc(N3CCNCC3)n2)cc1` [Compound 7], the “effect on adult worms (motility)” value is “worm recovery began at 12.50 µM and remained at 6.25 µM” in assay [1] (12.50 and 6.25 µM); “lethal effect” in assay [1] (50 and 25 µM). Moreover, in assay [1] (titration 50 - 6.25 µM, effect up to and including 12.50 µM), the “egg production (worm fecundity)” value was “particularly effective in inhibiting worm fecundity”. Besides, in assay [2] (5, 2 and 0.5 µM), the “inhibition of miracidia transformation” value is 20–25%. Also, the effect on miracidia result in assay [2] (50 and 25 µM) is on record as “completely lethal”. The inhibition at 10 µM in assay [2] (Schistosoma mansoni, 10 µM) is 45%. Besides, in assay [3], the EC50 amounted to 11 µM.

These data come from article PMC7459852, “Identification of 6-(piperazin-1-yl)-1,3,5-triazine as a chemical scaffold with broad anti-schistosomal activities” (Wellcome Open Research, 2020).
